Measurements published in patent US20120129843A1, “PYRIDYL-THIAZOLYL INHIBITORS OF PRO-MATRIX METALLOPROTEINASE ACTIVATION” (priority 2010, published 2012).
Counter-ions that a name gives are not always drawn.

Assays:
[1] = molecular target: T1, proMMP9(20-445;ΔFnII) (SEQ ID NO:6) (Homo sapiens, UniProt P14780, DEL216-390); experiment: ThermoFluor binding assay with proMMP9(20-445;ΔFnII)
T1 construct: start methionine (N); made in house; host or cells: E. coli BL21(DE3) RIL
T1 sequence (P14780 with tags, fused parts or gaps DEL216-390): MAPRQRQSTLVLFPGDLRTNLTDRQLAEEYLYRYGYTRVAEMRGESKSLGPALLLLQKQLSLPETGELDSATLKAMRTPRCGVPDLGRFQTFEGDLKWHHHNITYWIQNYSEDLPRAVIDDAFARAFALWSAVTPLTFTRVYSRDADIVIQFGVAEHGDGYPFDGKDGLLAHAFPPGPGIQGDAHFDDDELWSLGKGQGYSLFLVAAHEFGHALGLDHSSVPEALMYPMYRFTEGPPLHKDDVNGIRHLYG
Description: (§1) The ThermoFluor® (TF) assay is a 384-well plate-based binding assay that measures thermal stability of proteins (Biomol Screen 2001, 6, 429-40; Biochemistry 2005, 44, 5258-66). The experiments were carried out using instruments available from Johnson & Johnson Pharmaceutical Research & Development, LLC. TF dye used in all experiments was […] (1,8-ANS) (Invitrogen: A-47).
(§2) Compounds were arranged in a pre-dispensed plate (Greiner Bio-one: 781280), wherein compounds were serially diluted in 100% DMSO across 11 columns within a series. Columns 12 and 24 were used as DMSO reference and contained no compound. For multiple compound concentration-response experiments, the compound aliquots ([…]) were robotically predispensed directly into black 384-well polypropylene PCR microplates (Abgene: TF-0384/k) using a Cartesian Hummingbird liquid handler (DigiLab, Holliston, Mass.). Following compound dispense, protein and dye solutions were added to achieve the final assay volume of 3 μL. The assay solutions were overlayed with 1 μL of silicone oil (Fluka, type DC 200: 85411) to prevent evaporation.
(§3) Assay plates were robotically loaded onto a thermostatically controlled PCR-type thermal block and then heated from 40 to 90° C. at a ramp-rate of 1° C./min for all experiments. Fluorescence was measured by continuous illumination with UV light (Hamamatsu LC6) supplied via fiber optics and filtered through a band-pass filter (380-400 nm; >60D cutoff). Fluorescence emission of the entire 384-well plate was detected by measuring light intensity using a CCD camera (Sensys, Roper Scientific) filtered to detect 500±25 nm, resulting in simultaneous and independent readings of all 384 wells. A single image with 20-sec exposure time was collected at each temperature, and the sum of the pixel intensity in a given area of the assay plate was recorded vs temperature and fit to standard equations to yield the Tm (J Biomol Screen 2001, 6, 429-40).
(§4) Thermodynamic parameters necessary for fitting compound binding for each proMMP were estimated by differential scanning calorimetry (DSC) and from ThermoFluor® data. The heat capacity of unfolding for each protein was estimated from the molecular weight and from ThermoFluor® dosing data.
ThermoFluor® with proMMP9(20-445;ΔFnII) (SEQ ID NO:6)
The protein sample preparations included a desalting buffer exchange step via a PD-10 gravity column (GE Healthcare). The desalting buffer exchange was performed prior to diluting the protein to the final assay concentration of 2.8 μM proMMP9(20-445;ΔFnII) (SEQ ID NO:6). The concentration of proMMP9(20-445;ΔFnII) (SEQ ID NO:6) was determined spectrophotometrically based on a calculated extinction coefficient of ε280=39880 M^−1cm^−1, a calculated molecular weight of 28.2 kDa, and calculated pI of 5.5. ThermoFluor® reference conditions were define as follows: 80 μg/mL (2.8 μM) proMMP9(20-445;ΔFnII) (SEQ ID NO:6), 50 μM 1,8-ANS, pH 7.0 Buffer (50 mM HEPES pH 7.0, 100 mM NaCl, 0.001% Tween-20, 2.5 mM MgCl2, 300 μM CaCl2). The thermodynamic parameters for proMMP9(20-445;ΔFnII) (SEQ ID NO:6) are as follows: Tm (° C.)=72 (+/−0.1), ΔUH(Tm) (cal mol^−1)=160000(+/−5000), ΔUS(Tm) (cal mol^−1 K^−1)=434, ΔUCp (cal mol^−1 K^−1)=2400.

[2] = molecular target: T2, proMMP9(67-444;ΔFnII) (SEQ ID NO:5) (Homo sapiens, UniProt P14780, DEL216-390); experiment: ThermoFluor binding assay with proMMP9(67-444;ΔFnII)
T2 construct: start methionine (N); made in house; host or cells: E. coli BL21(DE3) RIL
T2 sequence (P14780 with tags, fused parts or gaps DEL216-390): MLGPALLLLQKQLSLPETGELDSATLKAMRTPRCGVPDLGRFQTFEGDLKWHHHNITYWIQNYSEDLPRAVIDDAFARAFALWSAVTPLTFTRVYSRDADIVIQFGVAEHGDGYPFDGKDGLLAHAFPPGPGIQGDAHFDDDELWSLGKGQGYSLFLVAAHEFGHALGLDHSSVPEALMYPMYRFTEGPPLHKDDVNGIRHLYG
Description: as §1, §2, §3, §4
ThermoFluor® with proMMP9(67-444;ΔFnII) (SEQ ID NO:5)
The protein sample preparations had to include a desalting buffer exchange step via a PD-10 gravity column (GE Healthcare). The desalting buffer exchange was performed prior to diluting the protein to the final assay concentration of 3.5 μM proMMP9(67-444;ΔFnII) (SEQ ID NO:5). The concentration of proMMP9(67-444;ΔFnII) (SEQ ID NO:5) was determined spectrophotometrically based on a calculated extinction coefficient of ε280=33900 M^−1cm^−1, a calculated molecular weight of 22.6 kDa, and calculated pI of 5.20. ThermoFluor® reference conditions were defined as follows: 80 μg/mL (3.5 μM) proMMP9(67-444;ΔFnII) (SEQ ID NO:5), 50 μM 1,8-ANS, pH 7.0 Buffer (50 mM HEPES pH 7.0, 100 mM NaCl, 0.001% Tween-20, 2.5 mM MgCl2, 300 μM CaCl2). The thermodynamic parameters for proMMP9(67-444;ΔFnII) (SEQ ID NO:5) are as follows: Tm (° C.)=63 (+/−0.1), ΔUH(Tm) (cal mol^−1)=105000(+/−5000), ΔUS(Tm) (cal mol^−1 K^−1)=[…], ΔUCp (cal mol^−1 K^−1)=2000.

[3] = molecular target: T3, full-length proMMP9(1-707) (SEQ ID NO:1), activation by catalytic MMP3 (Homo sapiens, UniProt P14780, R574P); experiment: proMMP9/MMP3 P126 Activation Assay; assay type: biochemical
T3 construct: made in house; host or cells: HEK293 (proMMP9, secreted); E. coli (MMP3)
T3 sequence (P14780 20-707 R574P): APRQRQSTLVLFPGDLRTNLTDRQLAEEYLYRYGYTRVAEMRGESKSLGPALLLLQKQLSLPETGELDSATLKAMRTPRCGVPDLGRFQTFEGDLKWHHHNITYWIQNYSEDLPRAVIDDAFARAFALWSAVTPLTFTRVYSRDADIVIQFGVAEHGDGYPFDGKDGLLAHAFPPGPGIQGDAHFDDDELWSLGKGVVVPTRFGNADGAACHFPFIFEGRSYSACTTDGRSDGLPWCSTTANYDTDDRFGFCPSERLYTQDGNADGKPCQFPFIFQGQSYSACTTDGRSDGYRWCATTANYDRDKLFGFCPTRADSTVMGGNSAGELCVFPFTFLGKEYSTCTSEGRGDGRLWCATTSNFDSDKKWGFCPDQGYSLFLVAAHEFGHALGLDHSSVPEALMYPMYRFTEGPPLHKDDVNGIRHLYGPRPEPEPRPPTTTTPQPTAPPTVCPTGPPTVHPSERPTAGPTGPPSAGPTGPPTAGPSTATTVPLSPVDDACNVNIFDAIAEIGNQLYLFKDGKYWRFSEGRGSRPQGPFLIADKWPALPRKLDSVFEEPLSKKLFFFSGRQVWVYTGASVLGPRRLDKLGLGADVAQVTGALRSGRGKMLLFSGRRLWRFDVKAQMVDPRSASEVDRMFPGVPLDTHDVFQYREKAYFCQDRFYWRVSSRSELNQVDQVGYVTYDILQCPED
Description: proMMP9/MMP3 P126 Activation Assay
The reaction volume was 50 μL. […] Reactivity of residual MMP3 towards P-126 substrate was minimal under these conditions.

Compound	Kd [1] [nM]	Kd [2] [nM]	IC50 [3] [nM]
COc1cc(C(N)=O)ccc1Nc1nc(-c2cccnc2)cs1 [Example 6, 3-Methoxy-4-(4-pyridin-3-yl-thiazol-2-ylamino)-benzamide]	70000	11000	11000
COc1cc(C)c(C(N)=O)cc1Nc1nc(-c2ccc(N3CCN(C)CC3)nc2)cs1 [Example 7, 4-Methoxy-2-methyl-5-{4-[6-(4-methyl-piperazin-1-yl)-pyridin-3-yl]-thiazol-2-ylamino}-benzamide.TFA]	1200	3900	2400
CC(C)Cc1ccc(C(N)=O)cc1Nc1nc(-c2ccc(N3CCN(C)CC3)nc2)cs1 [Example 8, 4-Isobutyl-3-{4-[6-(4-methyl-piperazin-1-yl)-pyridin-3-yl]-thiazol-2-ylamino}-benzamide.TFA]	370	2900	1800
CC(C)Oc1ccc(S(C)(=O)=O)cc1Nc1nc(-c2cccnc2)cs1 [Example 10, (2-Isopropoxy-5-methanesulfonyl-phenyl)-(4-pyridin-3-yl-thiazol-2-yl)-amine.TFA]	660	3500	2600
CCS(=O)(=O)c1ccc(OC)c(Nc2nc(-c3cccnc3)cs2)c1 [Example 11, (5-Ethanesulfonyl-2-methoxy-phenyl)-(4-pyridin-3-yl-thiazol-2-yl)-amine.TFA]	5900	16000	
CC(C)Oc1ccc(C#N)cc1Nc1nc(-c2cccnc2)cs1 [Example 16, 4-Isopropoxy-3-(4-pyridin-3-yl-thiazol-2-ylamino)-benzonitrile.HBr]	20000	2900	3200
CC(C)Oc1ccc(C(N)=O)cc1Nc1nc(-c2ccnc(N3CCN(C)CC3)c2)cs1 [Example 28, 4-Isopropoxy-3-{4-[2-(4-methyl-piperazin-1-yl)-pyridin-4-yl]-thiazol-2-ylamino}-benzamide.TFA]	82	990	210
COc1ccc(S(N)(=O)=O)cc1Nc1nc(-c2ccc(N3CCN(C)CC3)nc2)cs1 [Example 29, 4-Methoxy-3-{4-[6-(4-methyl-piperazin-1-yl)-pyridin-3-yl]-thiazol-2-ylamino}-benzenesulfonamide]	930	1600	1400
CC(C)Oc1ccc(S(N)(=O)=O)cc1Nc1nc(-c2ccc(N3CCN(S(C)(=O)=O)CC3)nc2)cs1 [Example 83, 4-Isopropoxy-3-((4-(6-(4-(methylsulfonyl)piperazin-1-yl)pyridin-3-yl)thiazol-2-yl)amino)benzenesulfonamide.TFA]	310		140
CC(C)Oc1ccc(S(N)(=O)=O)cc1Nc1nc(-c2ccc(C(=O)NC3CN4CCC3CC4)nc2)cs1 (stereo not shown) [Example 86, 5-(2-((2-Isopropoxy-5-sulfamoylphenyl)amino)thiazol-4-yl)-N-(1-azabicyclo[2.2.2]octan-3-yl)picolinamide.TFA]	460		400
CCOC(=O)CCNC(=O)c1ccc(-c2csc(Nc3cc(S(N)(=O)=O)ccc3OC(C)C)n2)cn1 [Example 87, Ethyl 3-(5-(2-((2-isopropoxy-5-sulfamoylphenyl)amino)thiazol-4-yl)picolinamido)propanoate.TFA]	360		~2000
CC(C)Oc1ccc(S(N)(=O)=O)cc1Nc1nc(-c2ccc(C(=O)NC3CCN(C(C)C)CC3)nc2)cs1 [Example 88, 5-(2-((2-Isopropoxy-5-sulfamoylphenyl)amino)thiazol-4-yl)-N-(1-isopropylpiperidin-4-yl)picolinamide.TFA]	260		330
CC(C)Oc1ccc(S(N)(=O)=O)cc1Nc1nc(-c2ccc(C(=O)NC3CCCN(C)C3)nc2)cs1 (stereo not shown) [Example 89, 5-(2-((2-Isopropoxy-5-sulfamoylphenyl)amino)thiazol-4-yl)-N-(1-methylpiperidin-3-yl)picolinamide.TFA]	360		350
COCCNC(=O)c1ccc(-c2csc(Nc3cc(S(N)(=O)=O)ccc3OC(C)C)n2)cn1 [Example 90, 5-(2-((2-Isopropoxy-5-sulfamoylphenyl)amino)thiazol-4-yl)-N-(2-methoxyethyl)picolinamide.TFA]	970		1700
CC(C)Oc1ccc(S(N)(=O)=O)cc1Nc1nc(-c2ccc(C(=O)NCC3CCOCC3)nc2)cs1 [Example 91, 5-(2-((2-Isopropoxy-5-sulfamoylphenyl)amino)thiazol-4-yl)-N-((tetrahydro-2H-pyran-4-yl)methyl)picolinamide.TFA]	2400		640
COCCCN(C)c1ccc(-c2csc(Nc3cc(S(N)(=O)=O)ccc3OC(C)C)n2)cn1 [Example 92, 4-Isopropoxy-3-((4-(6-((3-methoxypropyl)(methyl)amino)pyridin-3-yl)thiazol-2-yl)amino)benzenesulfonamide.TFA]	450		230
CC(C)Oc1ccc(S(N)(=O)=O)cc1Nc1nc(-c2ccc(C(=O)NC3CCOCC3)nc2)cs1 [Example 96, 5-(2-((2-Isopropoxy-5-sulfamoylphenyl)amino)thiazol-4-yl)-N-(tetrahydro-2H-pyran-4-yl)picolinamide.TFA]	1900		590
COC(=O)c1ccc(-c2csc(Nc3cc(S(N)(=O)=O)ccc3OC(C)C)n2)cn1 [Intermediate 12, 5-[2-(2-Isopropoxy-5-sulfamoyl-phenylamino)-thiazol-4-yl]-pyridine-2-carboxylic acid methyl ester.TsOH]		410	> 20000
